The values that follow come from US7973071B2, “Substituted gamma lactams as therapeutic agents” (Allergan, Inc., priority 2005, dated 2011).

Broadly, the Ki is a measure of affinity in units of concentration, obtained from inhibition or displacement. Low readings indicate tighter binding, high ones weaker binding. A word on the EC50: it is the concentration giving half of the maximal effect.

One assay has as its target T1, EP4 receptors (Homo sapiens, UniProt P35408).
T1 construct: expressed in transfected cells; host or cells: HEK-293
The assay is described as follows: Radioligand binding vs [3H]PGE2, EP4. Here is the method: HEK-293 cells stably expressing the human or feline FP receptor, or EP1, EP2, or EP4 receptors were washed with TME buffer, scraped from the bottom of the flasks, and homogenized for 30 sec using a Brinkman PT 10/35 polytron. TME buffer was added to achieve a final 40 ml volume in the centrifuge tubes (the composition of TME is 100 mM TRIS base, 20 mM MgCl2, […]; 10N HCl is added to achieve a pH of 7.4).
The cell homogenate was centrifuged at 19000 r.p.m. for 20 min at 4° C. using a Beckman Ti-60 rotor. The resultant pellet was resuspended in TME buffer to give a final 1 mg/ml protein concentration, as determined by Biorad assay. Radioligand binding competition assays vs. [^3H-]17 phenyl PGF2α, (5 nM) were performed in a 1001μvolume for 60 min. Binding reactions were started by adding plasma membrane fraction. The reaction was terminated by the addition of 4 ml ice-cold TRIS-HCl buffer and rapid filtration through glass fiber GF/B filters using a Brandel cell harvester. The filters were washed 3 times with ice-cold buffer and oven dried for one hour.
[^3H-] PGE2 (specific activity 180 Ci mmol) was used as the radioligand for EP receptors. [^3H] 17-phenyl PGF2α was employed for FP receptor binding studies. […] 17-phenyl PGF2α and non-specific binding determined with 10^−5M of unlabeled PGE2, or 17-phenyl PGF2α, according to receptor subtype studied.

For assay [1], the target named is T2, EP2 (Homo sapiens, UniProt P43116). Description: EP2 cAMP assay. The class given is cell-based.
T2 sequence (P43116 whole entry): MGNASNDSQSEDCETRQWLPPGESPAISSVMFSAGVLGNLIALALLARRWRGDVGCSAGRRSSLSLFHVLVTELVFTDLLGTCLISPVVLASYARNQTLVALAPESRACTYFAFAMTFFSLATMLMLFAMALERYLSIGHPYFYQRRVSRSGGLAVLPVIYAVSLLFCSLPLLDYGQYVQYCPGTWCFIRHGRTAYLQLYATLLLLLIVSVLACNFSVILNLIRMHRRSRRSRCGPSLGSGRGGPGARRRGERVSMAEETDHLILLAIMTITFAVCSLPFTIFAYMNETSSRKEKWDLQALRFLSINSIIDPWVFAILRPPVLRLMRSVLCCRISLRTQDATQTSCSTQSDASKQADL
The target of another assay is T3, hEP3A/Gqi5 (Homo sapiens, UniProt P43115).
T3 construct: expressed in transfected cells; host or cells: HEK-293(EBNA)
T3 sequence (P43115 1-390): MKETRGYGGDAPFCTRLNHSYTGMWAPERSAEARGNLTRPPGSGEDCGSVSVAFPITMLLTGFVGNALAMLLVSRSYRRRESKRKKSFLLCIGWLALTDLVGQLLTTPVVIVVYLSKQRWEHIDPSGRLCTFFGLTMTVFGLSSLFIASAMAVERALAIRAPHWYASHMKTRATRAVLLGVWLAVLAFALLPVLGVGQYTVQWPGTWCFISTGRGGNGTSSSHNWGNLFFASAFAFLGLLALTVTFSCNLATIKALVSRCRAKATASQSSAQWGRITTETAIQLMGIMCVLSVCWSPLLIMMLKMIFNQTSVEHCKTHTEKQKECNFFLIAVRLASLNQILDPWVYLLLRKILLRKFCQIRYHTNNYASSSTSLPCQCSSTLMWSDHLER
Description: FLIPR calcium signal study, EP3A. The following applies: read-out: Other Receptors hEP3A EC50. The assay is classed as cell-based. Here is the method:
HEK-293(EBNA) cells, stably expressing one type or subtype of recombinant human prostaglandin receptors (prostaglandin receptors expressed: hDP/Gqs5; hEP1; hEP2/Gqs5; hEP3A/Gqi5; hEP4/Gqs5; hFP; hIP; hTP), were cultured in 100 mm culture dishes in high-glucose DMEM medium containing 10% fetal bovine serum, 2 mM 1-glutamine, 250 μg/ml geneticin (G418) and 200 μg/ml hygromycin B as selection markers, and 100 units/ml penicillin G, 100 μg/ml streptomycin and 0.25 μg/ml amphotericin B.
Cells were seeded at a density of 5×10^4 cells per well in Biocoat® Poly-D-lysine-coated black-wall, clear-bottom 96-well plates (Becton-Dickinson) and allowed to attach overnight in an incubator at 37° C. Cells were then washed two times with HBSS-HEPES buffer (Hanks Balanced Salt Solution without bicarbonate and phenol red, 20 mM HEPES, pH 7.4) using a Denley Cellwash plate washer (Labsystems). […]
Cells were excited with an Argon laser at 488 nm, and emission was measured through a 510-570 nm bandwidth emission filter (FLIPR™, Molecular Devices, Sunnyvale, Calif.). […] The peak increase in fluorescence intensity was recorded for each well. […] The peak fluorescence change in each drug-containing well was then expressed relative to the controls. […]

In assay [2] the target is T2, EP2. The assay is described as follows: Competition binding vs [3H]PGE2, EP2. Details: expressed in transfected cells; host or cells: HEK 293. The note with it: HEK 293 cells stably expressing human EP2. Here is the method: Competition binding experiments were performed in a medium containing Hank's balanced salt solution, Hepes 20 mM, pH 7.3, membranes (˜60 μg protein) or 2×10^5 cells from HEK 293 cells stably expressing human EP2 receptors, [^3H]PGE2 (10 nM) and various concentrations of test compounds in a total volume of 300 μl. Reaction mixtures were incubated at 23° C. for 60 min, and were filtered over Whatman GF/B filters under vacuum. Filters were washed three times with 5 ml ice-cold buffer containing 50 mM Tris/HCl (pH 7.3). Non-specific binding was estimated in the presence of excess unlabeled PGE2 (10 μM). Binding data fitted to the binding model for a single class of binding sites, using nonlinear regression analysis. IC50 values thus obtained were converted to Ki using the equation of Ki=(IC50/(1+[L]/KD) where [L] represents PGE2 concentration (10 nM) and KD the dissociation constant for [^3H]PGE2 at human EP2 receptors (40 nM). […]
The cell homogenate was centrifuged at 19000 r.p.m. for 20 min at 4° C. using a Beckman Ti-60 rotor. The resultant pellet was resuspended in TME buffer to give a final 1 mg/ml protein concentration, as determined by Biorad assay. […]
[^3H-] […] 17-phenyl PGF2α and non-specific binding determined with 10^−5M of unlabeled PGE2, or 17-phenyl PGF2α, according to receptor subtype studied.

T1 sequence (P35408 whole entry): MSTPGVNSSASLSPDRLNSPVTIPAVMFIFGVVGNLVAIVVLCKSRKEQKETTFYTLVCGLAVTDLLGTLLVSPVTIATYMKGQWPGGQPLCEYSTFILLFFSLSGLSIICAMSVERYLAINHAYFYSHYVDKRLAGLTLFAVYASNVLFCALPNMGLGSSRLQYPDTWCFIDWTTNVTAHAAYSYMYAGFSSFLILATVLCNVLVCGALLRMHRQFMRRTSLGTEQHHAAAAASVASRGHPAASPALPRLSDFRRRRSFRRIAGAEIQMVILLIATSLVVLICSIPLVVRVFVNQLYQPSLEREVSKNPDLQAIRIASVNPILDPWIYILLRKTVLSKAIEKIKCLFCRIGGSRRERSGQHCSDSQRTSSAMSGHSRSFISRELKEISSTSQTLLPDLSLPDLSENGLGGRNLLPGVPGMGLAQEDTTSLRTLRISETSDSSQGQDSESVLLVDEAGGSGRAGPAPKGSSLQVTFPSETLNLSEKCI

On EP4 receptors, `CCCCCCC(O)c1ccc(N2C(=O)CC[C@@H]2COCc2ccc(C(=O)O)s2)cc1` (single isomer, unassigned) [Example 34] had a Ki of 3.84 µM.
On to `CCCCCC(O)c1ccc(N2C(=O)CC[C@@H]2COCc2ccc(C(=O)O)s2)cc1` (stereo partly drawn) [Example 9, 5-{(R)-1-[4-(1-Hydroxy-hexyl)-phenyl]-5-oxo-pyrrolidin-2-ylmethoxymethyl}-thiophene-2-carboxylic acid], for which the EC50 came out at 3 nM on EP2 [1] and 403 nM at hEP3A/Gqi5.
`CCCCCCC(O)c1ccc(N2C(=O)CC[C@@H]2COCc2ccc(C(=O)O)s2)cc1` (stereo partly drawn) [Example 13, 5-{(R)-1-[4-(1-Hydroxy-heptyl)-phenyl]-5-oxo-pyrrolidin-2-ylmethoxymethyl}-thiophene-2-carboxylic acid]: the concentration giving a half-maximal response (EC50) on hEP3A/Gqi5 amounted to 519 nM.
The compound `CCCCCCC(O)c1ccc(N2C(=O)CC[C@@H]2CCCc2ccc(C(=O)O)s2)cc1` (stereo partly drawn) [Example 36, 5-(3-{(S)-1-[4-(1-Hydroxy-heptyl)-phenyl]-5-oxo-pyrrolidin-2-yl}-propyl)-thiophene-2-carboxylic acid] displayed a Ki on EP2 [2] of 10 nM. At EP2 [1], this compound had an EC50 of 0.9 nM.
